{"source": "patent US20220153786A1", "about": "“PEPTIDES FOR PREVENTING BIOFILM FORMATION” (priority 2019, published 2022)", "key": {"[1]": {"system": "Staphylococcus epidermidis ATCC 35984", "experiment": "Bacterial growth assay, microtiter plates OD600", "type": "cell-based", "settings": "untreated growth control = 100%", "method": "Bacterial growth assays. Microtiter plates: bacterial growth was evaluated by difference between the optical density absorbance at 600 nm measured at the end and the beginning of the incubation time (37° C., 1, 4 or 24 h) in 96-well poly(vinyl chloride) microtiter plates. Rifampicin 16 μg/mL (Sigma-Aldrich Co., USA) was used as a control for bacterial growth inhibition. Colony-forming units (CFU/mL): after incubation (37° C., 24 h) the CFU was calculated to determine bactericidal effect of peptide solution. Untreated growth control was considered 100% of planktonic cells. All assays were at least performed as technical and biological triplicates.\nMicrotiter plates: Bacterial growth was evaluated by comparing OD600 values at the start and end of incubation in 96-well PVC microtiter plates."}, "[2]": {"system": "Staphylococcus epidermidis RP62A (ATCC 35984) biofilm", "experiment": "Biofilm formation inhibition, crystal violet in 96-well PVC microtiter plates", "type": "cell-based", "settings": "biofilm formation control = 100%", "method": "Biofilm formation. […] Biofilm inhibition: a protocol adapted from Zimmer et al. (2013) Environmental Microbiology 15:2008-2018 and Trentin et al. (2015) Scientific Reports 5:8287, employing crystal violet in 96-well poly(vinyl chloride) microtiter plates (Falcon; Becton Dickinson Labware, Oxnard, Calif.) was used. Briefly, 100 μL of the bacterial suspension, 100 μL of the peptide solution (at different concentrations) or vehicle (to controls) and 50 μL of tryptone soya broth (TSB, Oxoid Ltd., England). Following 37° C. for 1, 4 or 24 h of incubation, the content of the wells was removed and the wells were washed three times with sterile saline. The remaining contents were heat-fixed at 60° C. for 1 h. The adherent biofilm layer formed was stained with 0.4% crystal violet for 15 min at room temperature and then washed three times with distilled water. The stain bound to the cells was solubilized with absolute ethanol (Sigma-Aldrich Co., USA) and absorbance was measured at 570 nm (Powerwave™ XS Plate Reader, BIO-TEK Instruments®, Inc.). The biofilm formation controls represent 100% of biofilm formation. Biofilm eradication: biofilm was pre-formed as described before, during 24 h at 37° C., without treatment. After biofilm formation, the wells were washed to remove the planktonic cells and the peptides solutions and controls were added and incubated for 24 h. The eradication was verified by evaluating the remaining content by crystal violet.\nBiofilm formation inhibition: A protocol adapted from Trentin et al. (2015) Scientific Reports 5 was used, with crystal violet in 96-well BD Falcon polyvinyl chloride (PVC) microtiter plates. The cell-bound stains were solubilized with absolute ethanol (Sigma-Aldrich), and absorbance was measured at 570 nm using a BIO-TEK PowerWave XS plate reader. The biofilm formation control represents 100% of biofilm formation."}, "[3]": {"settings": "positive control, concentration 780 (μM)"}}}
{"molecule": "RSCQQQ (P3x)", "values": [{"measurement": "Growth (%)", "setting": "[1]; peptide concentration 100 μM", "value": 91.9, "unit": "%"}, {"measurement": "Remanescent biofilm (%)", "setting": "[2]; peptide concentration 100 μM", "value": 34.4, "unit": "%"}]}
{"molecule": "RVQSEEGEDQISQRE (P1)", "values": [{"measurement": "Growth (%)", "setting": "[1]; peptide concentration 100 μM", "value": 123.2, "unit": "%"}, {"measurement": "Remanescent biofilm (%)", "setting": "[2]; peptide concentration 100 μM", "value": 64.9, "unit": "%"}]}
{"molecule": "IQQAQQLS (P3y)", "values": [{"measurement": "Growth (%)", "setting": "[1]; peptide concentration 10 μM", "value": 172.0, "unit": "%"}, {"measurement": "Remanescent biofilm (%)", "setting": "[2]; peptide concentration 10 μM", "value": 6.2, "unit": "%"}]}
{"molecule": "RSCQQQIQQAQQ (P3a)", "values": [{"measurement": "Growth (%)", "setting": "[1]; peptide concentration 100 μM", "value": 89.9, "unit": "%"}, {"measurement": "Remanescent biofilm (%)", "setting": "[2]; peptide concentration 100 μM", "value": 61.5, "unit": "%"}]}
{"molecule": "CO[C@H]1/C=C/O[C@@]2(C)Oc3c(C)c(O)c4c(O)c(c(/C=N/N5CCN(C)CC5)c(O)c4c3C2=O)NC(=O)/C(C)=C\\C=C\\[C@H](C)[C@H](O)[C@@H](C)[C@@H](O)[C@@H](C)[C@H](OC(C)=O)[C@@H]1C", "note": "[Rifampicin, reference compound]", "values": [{"measurement": "Growth (%)", "setting": "[1]; [3]", "value": 28.7, "unit": "%"}, {"measurement": "Remanescent biofilm (%)", "setting": "[2]; [3]", "value": 9.7, "unit": "%"}]}
{"molecule": "RSCQQQIQQAQQLSSCQQYLKQRVQSEEGEDQISQRE (P31) [synthetic peptide derived from 2S sulfur-rich seed storage protein 2-like of Capsicum baccatum]", "values": [{"measurement": "Growth (%)", "setting": "[1]; peptide concentration 400 μM", "value": 88.6, "unit": "%"}, {"measurement": "Remanescent biofilm (%)", "setting": "[2]; peptide concentration 400 μM", "value": 8.3, "unit": "%"}]}
{"molecule": "SCQQYLKQ (P3z)", "values": [{"measurement": "Growth (%)", "setting": "[1]; peptide concentration 100 μM", "value": 169.9, "unit": "%"}, {"measurement": "Remanescent biofilm (%)", "setting": "[2]; peptide concentration 100 μM", "value": 46.3, "unit": "%"}]}
